The assay concerns ILK, phosphorylated Akt-S 473. Briefly: Western blot on heart lysates after coronary ligation. The assay is classed as in vivo, mouse. The text has this: Animals and surgical procedures. Myocardial infarction was produced in 58 male C57BL/6J mice at 16 weeks of age (25-30 g) by ligation of the left anterior descending coronary artery as previously described (Garner et al., 2003). All animal protocols were reviewed and approved by the University of Texas Southwestern Medical Center Institutional Animal Care Advisory Committee and were in compliance with the rules governing animal use as published by the NIH. Twenty-nine of the ligated mice received thymosin β4 treatment immediately after ligation and the remaining 29 received PBS injections. Treatment was given intracardiac with thymosin β4 (200 ng in 10 μl collagen) or with 10 μl of collagen; intraperitoneally with thymosin β4 (150 μg in 300 μl PBS) or with 300 μl of PBS; or by both intracardiac and intraperitoneal injections. Intraperitoneal injections were given every 3 days until mice were killed. Doses were based on previous studies of thymosin β4 biodistribution (Mora et al., 1997). Hearts were removed, weighed and fixed for histological sectioning. Additional mice were operated on in a similar fashion for studies 0.5, 1, 3, 6 and 11 days after ligation.
Similar to cultured cells, the level of ILK protein was increased in heart lysates of mice treated with thymosin β4 after coronary ligation compared with PBS-treated mice (FIG. 5N).
For orientation: Immunoblotting shows a protein as a band on a membrane.

For thymosin β4, for the setting “compared with PBS-treated mice”, the “level of ILK protein in heart lysates” value was “increased”. Besides, the “amount of phosphorylated Akt-S 473 in heart lysates” value (phospho-specific antibodies) is reported as “elevation”.

Source of the values: patent publication US7531318B2, “Screening of agents for activity against ischemic myocardial insults” (priority 2004, dated 2009).
